O=C(OCC1c2ccccc2-c2ccccc21)ON1C(=O)CCC1=O
solubility (mole fraction)
Settings | 283.15 K | 288.15 K | 293.15 K | 298.15 K | 303.15 K | 308.15 K | 313.15 K | 318.15 K | 323.15 K | 328.15 K
in DMF | 0.00369 | 0.00533 | 0.00719 | 0.00964 | 0.0132 | 0.0177 | 0.023 | 0.0298 | 0.0387 | 0.0499
in DMSO | – | – | 0.00499 | 0.00641 | 0.0084 | 0.0107 | 0.0134 | 0.0167 | 0.0208 | 0.0257
in ethanol | 0.000477 | 0.000571 | 0.000687 | 0.000824 | 0.000979 | 0.00115 | 0.00134 | 0.00155 | 0.00177 | 0.00205
in ethylene glycol | 0.000151 | 0.00019 | 0.000241 | 0.000314 | 0.000396 | 0.00049 | 0.000611 | 0.000748 | 0.00092 | 0.00111
in water | – | – | 5.77e-06 | 7.38e-06 | 9.44e-06 | 1.19e-05 | 1.49e-05 | 1.84e-05 | 2.28e-05 | 2.78e-05

From BigSolDB 2.1
